Laboratory results reported in patent publication US9556217B2, “Amphiphilic compounds” (WISCONSIN ALUMNI RESEARCH FOUNDATION, priority 2012, dated 2017).

Columns and labels:
[1] = target: T1, wild type β2AR (β2AR WT) (Homo sapiens, UniProt P07550); assay: β2AR WT activity after extraction ([3H]-dihydroalprenolol binding); format: biochemical; details: for β2AR WT initial activity: extracted with 1 wt % or 2 wt % amphiphile; for β2AR WT activity over 72 hours: solubilized samples stored at 4° C.
T1 construct: made in house; host or cells: Sf9 insect cells (baculovirus); lysed cells and membranes extracted directly with amphiphile
Description: In the examples discussed above, conventional detergents such as DDM were used to extract IMPs from the membrane, and then in most cases the solution of detergent-solubilized protein was diluted with amphiphile-containing solutions to evaluate the new agents. With this approach it is possible that the small amount of residual conventional detergent could affect protein stability. To exclude this possibility, GLC-3 and GDN were used to extract wild type β2AR (β2AR WT) (Kobilka, Trends in Pharmacological Sciences 2011, 32, 213-218) from the membrane. Receptor activity was measured via a binding assay involving the antagonist [^3H]-dihydroalprenolol. […] GDN is therefore highly suitable for GPCR extraction.
A gene encoding amino-terminally FLAG epitope tagged β2AR was expressed in Sf9 cells by baculovirus, with no ligand present during culture. Cells were infected at a density of 4×10^6 cells/mL and then cultured for 48 hours prior to harvesting by centrifugation. Cells were resuspended and lysed by osmotic shock with a low ionic strength buffer (20 mM Tris pH 7.5, 1 mM EDTA). The lysed cells were aliquoted 35 mg per aliquot, then frozen. For extraction tests, 300 μL of solubilization buffer (20 mM HEPES pH 7.5, 100 mM NaCl) containing each amphiphile was added to each aliquot, which was then homogenized by pipet followed by grinding with a glass dounce tissue homogenizer. After two-hour incubation at 4° C., samples were centrifuged at maximum speed in a tabletop microcentrifuge to pellet insoluble material. Supernatant was removed and assayed for protein concentration by DC protein assay (Bio-Rad).
The amount of functional receptor was quantified by incubation for 1 hour with 10 nM 3H dihydroalprenolol. Samples were then separated by gel filtration over G-50 resin and radioactivity was quantified by liquid scintillation. Nonspecific binding was measured in the presence of 10 μM alprenolol. Assays were performed in triplicate at time points indicated. G-50 filtration was performed in buffer containing 20 mM HEPES pH 7.5, 100 mM NaCl, 10-fold CMC of the detergent tested. All binding assays were performed with ice cold buffers.

[2] = target: T2, CMP-Sia fusion protein bearing green fluorescent protein (GFP) (Mus musculus, UniProt Q61420); assay: CMP-Sia-GFP fusion solubilization (fluorescence); details: 1 hr at 4° C., total fluorescence
T2 construct: made in house; host or cells: Saccharomyces cerevisiae FGY217
Description: The favorable MelB extraction performance of GDN led to the examination of this amphiphile for extraction of other IMPs. […] DDM and GDN were used to extract a CMP-Sia fusion protein bearing green fluorescent protein (GFP) at the C-terminus, after expression in Saccharomyces cerevisiae; the amount of solubilized protein was estimated by total fluorescence. GDN (2 wt %), DDM (1 wt %) and OG (1 wt %) gave ˜70%, ˜80% and ˜50% extraction yields, respectively.
The procedure was performed according to the protocol reported by Chae and coworkers (Nat. Methods 2010, 7, 1003-1008).
CMP-Sia was expressed as a fusion protein with a C-terminal GFP in FGY217 Saccharomyces cerevisiae cells. Cell lysis was conducted by using a cell disrupter (Constant Systems) and the protein samples were subjected to centrifugation at 15,000 g for 10 mins to remove unbroken cells and debris. Subsequently, the membranes were harvested by ultracentrifugation at 150,000 g for 45 min. The membranes were resuspended in 50 mM Tris-HCl (pH 7.6), 1 mM EDTA, 0.6 M sorbitol and the protein concentration was estimated using a BCA kit (Pierce). The membranes were incubated with OG or DDM at 1.0%, or GDN at 2.0% for 1 hr at 4° C. A fluorescence value was measured for each sample before and after ultracentrifugation at 150,000 g for 1 h. The solubilization efficiency was calculated via the fluorescence measurements of the soluble supernatant/the total sample.

[3] = system: R. capsulatus LHI-RC superassembly; assay: R. capsulatus LHI-RC superassembly stability (A875/A680); set-up: species or system Rhodobacter capsulatus; details: CMC+0.04 wt %, RT, 875 nm/680 nm absorbance ratio
Description: Next a more challenging system, the photosynthetic superassembly from Rhodobacter capsulatus (Laible et al., Biochemistry 2003, 42, 1718-1730), was analyzed. This photosynthetic superassembly contains the light harvesting I (LHI) complex and the reaction center (RC) complex. The superassembly contains >30 protein molecules; integrity can be assessed based on the 875 nm/680 nm absorbance ratio (Chae et al., ChemBioChem 2008, 9, 1706-1709). The superassembly was extracted from the native membrane with 1.0 wt % DDM and purified with DDM at its CMC (0.009 wt %). […]
The stability of R. capsulatus superassembly was assessed according to the protocol described by Chae and coworkers (J. Am. Chem. Soc. 2010, 132, 16750-16752).
For the stability assay, DDM-solubilized material was transferred into a new microcentrifuge tube containing Ni-NTA resin (Qiagen, Inc.; Valencia, Calif.; pre-equilibrated and stored in an equal volume of buffer containing 10 mM Tris, pH 7.8, and 100 mM NaCl). After a 1 h incubation at 4° C. for binding, the resins were washed twice with 0.5 mL of binding buffer (a pH 7.8 Tris solution containing DDM at 1×CMC) and eluted three times with 0.20 mL elution buffer aliquots containing 1 M imidazole (otherwise, this buffer was identical to binding buffer; the pH of each solution was readjusted to pH=7.8). […]

T1 sequence (P07550 whole entry): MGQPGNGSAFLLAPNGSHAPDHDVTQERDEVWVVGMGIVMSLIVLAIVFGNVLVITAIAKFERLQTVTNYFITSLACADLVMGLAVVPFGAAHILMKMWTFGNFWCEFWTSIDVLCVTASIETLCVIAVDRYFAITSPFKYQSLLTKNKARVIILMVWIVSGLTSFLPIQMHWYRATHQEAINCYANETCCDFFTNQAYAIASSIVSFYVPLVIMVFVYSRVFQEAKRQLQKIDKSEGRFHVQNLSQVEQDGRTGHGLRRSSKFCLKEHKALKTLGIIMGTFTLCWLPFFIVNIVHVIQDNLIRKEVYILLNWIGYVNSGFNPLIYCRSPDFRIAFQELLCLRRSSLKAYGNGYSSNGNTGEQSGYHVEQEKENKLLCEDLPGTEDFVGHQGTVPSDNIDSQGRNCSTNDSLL

## CCCCCCCCCCCCO[C@@H]1O[C@H](CO)[C@@H](O[C@H]2O[C@H](CO)[C@@H](O)[C@H](O)[C@H]2O)[C@H](O)[C@H]1O [DDM, dodecyl-β-D-maltoside, reference compound]
[1]; [3H]-dihydroalprenolol binding
  β2AR WT initial activity: low initial activity
[1]
  β2AR WT activity over 72 hours: rapidly decomposed
[2]; 1 wt %
  CMP-Sia-GFP extraction yield: ~80%

## C[C@@H]1CC[C@@]2(OC1)O[C@H]1C[C@H]3[C@@H]4CC=C5C[C@@H](OCCC(CO[C@@H]6OC(CO)[C@@H](O[C@H]7OC(CO)[C@@H](O)C(O)C7O)C(O)C6O)CO[C@@H]6OC(CO)[C@@H](O[C@H]7OC(CO)[C@@H](O)C(O)C7O)C(O)C6O)CC[C@]5(C)[C@H]4CC[C@]3(C)[C@@H]1[C@@H]2C (stereo partly drawn) [GDN, glyco-diosgenin]
[3]
  LHI-RC superassembly stability over 20 days relative to DDM or OG: substantially more stable
[1]; [3H]-dihydroalprenolol binding
  β2AR WT initial activity, increase relative to DDM: > 3 fold
  β2AR WT initial activity: high initial activity
[1]
  β2AR WT activity over 72 hours: did not vary over 72 hours
[2]; 2 wt %
  CMP-Sia-GFP extraction yield: ~70%

## CO[C@@H]1CC[C@@]2(C)[C@H](CC[C@@H]3[C@@H]2CC[C@]2(C)[C@@H]([C@H](C)CCCOCC(C)(CO[C@@H]4OC(CO)C(O[C@@H]5OC(CO)[C@@H](O)[C@H](O)C5O)[C@@H](O)C4O)CO[C@@H]4OC(CO)[C@@H](O[C@H]5OC(CO)[C@@H](O)[C@H](O)C5O)[C@H](O)C4O)CC[C@@H]32)C1 (stereo partly drawn) [GLC-2]
[3]
  LHI-RC superassembly stability over 20 days relative to DDM or OG: substantially more stable
